According to US20090054403A1, “Treatment of Post-Traumatic Stress Disorder” (priority 2007, published 2009):
Values joined by “and” are separate entries in the source; they are usually repeats but may differ in a detail not shown here. Identical values can stand only once. Like-named read-outs stand apart in the source and are kept apart here.

Key:
[1] = target: T1, bovine dopamine-β-hydroxylase (Bos taurus, UniProt P15101); experiment: Bovine DBH activity, conversion of tyramine to octopamine (HPLC); assay type: biochemical; conditions: for IC50: 0.1 mM tyramine, 4 mM ascorbate, pH 5.2
T1 construct: Bovine DBH from adrenal glands was obtained from Sigma Chemicals; purchased Sigma Chemicals (St Louis, Mo.); host or cells: bovine adrenal glands
T1 sequence (P15101 1-610): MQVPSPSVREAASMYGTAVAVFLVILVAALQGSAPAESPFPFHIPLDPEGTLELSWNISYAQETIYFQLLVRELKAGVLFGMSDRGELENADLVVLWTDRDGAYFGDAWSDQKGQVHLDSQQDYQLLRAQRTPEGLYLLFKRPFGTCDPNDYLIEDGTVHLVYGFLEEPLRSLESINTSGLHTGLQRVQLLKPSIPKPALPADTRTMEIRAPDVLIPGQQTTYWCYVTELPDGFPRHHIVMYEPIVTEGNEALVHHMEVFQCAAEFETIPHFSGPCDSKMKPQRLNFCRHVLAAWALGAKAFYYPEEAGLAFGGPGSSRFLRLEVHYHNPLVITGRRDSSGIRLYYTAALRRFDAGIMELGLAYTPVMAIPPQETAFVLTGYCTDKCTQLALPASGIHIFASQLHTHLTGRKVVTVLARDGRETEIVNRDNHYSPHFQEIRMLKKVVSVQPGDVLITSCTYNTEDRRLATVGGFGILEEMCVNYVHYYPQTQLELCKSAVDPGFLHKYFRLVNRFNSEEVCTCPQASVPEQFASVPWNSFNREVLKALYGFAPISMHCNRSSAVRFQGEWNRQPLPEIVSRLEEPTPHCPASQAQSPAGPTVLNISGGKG
Method: (§1) Bovine and human dopamine-β-hydroxylase activity was assayed by measuring the conversion of tyramine to octopamine. Bovine adrenal dopamine-β-hydroxylase was obtained from Sigma Chemicals (St Louis, Mo., USA) whereas human dopamine-β-hydroxylase was purified from the culture medium of the neuroblastoma cell line SK-N-SH. The assay was performed at pH 5.2 and 32° C. in a medium containing 0.125 M NaAc, 10 mM fumarate, 0.5-2 μM CuSO4, 0.1 mg.ml^−1 catalase, 0.1 mM tyramine and 4 mM ascorbate. In a typical assay, 0.5-1 milliunits of enzyme were added to the reaction mixture and, subsequently, a substrate mixture containing catalase, tyramine and ascorbate was added to initiate the reaction (final volume of 200 μl). Samples were incubated with or without the appropriate concentration of nepicastat (S-enantiomer) or (R)-5-Aminomethyl-1-(5,7-difluoro-1,2,3,4-tetrahydronaphth-2-yl)-2,3-dihydro-2-thioxo-1H-imidazole hydrochloride (R-enantiomer) at 37° C. for 30-40 minutes. The reaction was quenched by the stop solution containing 25 mM EDTA and 240 μM 3-hydroxytyramine (internal standard). The samples were analysed for octopamine by reverse phase high pressure liquid chromatography (HPLC) using ultraviolet-detection at […]. The HPLC chromatography run was carried out at the flow rate of 1 ml.min^−1 using a LiChroCART 125-4 RP-18 column and isocratic elution with 10 mM acidic acid, 10 mM 1-heptane sulfonic acid, 12 mM tetrabutyl ammonium phosphate and 10% methanol. The remaining percent activity was calculated based on controls, corrected using internal standards and fitted to a non-linear four-parameter concentration-response curve.
(§2) In vitro assay of DBH activity. DBH activity was assayed by measuring the conversion of tyramine to octopamine. Bovine DBH from adrenal glands was obtained from Sigma Chemical Co (St Louis, Mo.). Human secretory DBH was purified from the culture medium of the neuroblastoma cell line SK-N-SH. The assay was performed at pH 5.2 and 32° C. in 0.125 M NaOAc, 10 mM fumarate, 0.5-2 μM CUSO4, 0.1 mg/mL catalase, 0.1 mM tyramine and 4 mM ascorbate. In a typical assay, 0.5-1 milliunits of enzyme were added to the reaction mixture and then a substrate mixture containing catalase, tyramine and ascorbate was added to initiate the reaction (final volume of 200 μL). Samples were incubated with or without the appropriate concentration of the inhibitor at 37° C. for 30-40 min. The reaction was quenched by the stop solution containing 25 mM EDTA and 240 μM 3-hydroxytyramine (internal standard). The samples were analysed for octopamine by reverse phase HPLC using UV detection at […]. The remaining percent activity was calculated based on controls (without inhibitor), corrected using internal standards and fitted to a non-linear 4-parameter concentration-response curve to obtain IC50 values.
(§3) Bovine DBH from adrenal glands was obtained from Sigma Chemicals (St. Louis, Mo.). Human secretory DBH was purified from the culture medium of the neuroblastoma cell line SK-N-SH and was used to obtain the inhibition data. A lentil lectin-sepharose column containing 25 ml gel was prepared and equilibrated with 50 mM KH2PO4, pH 6.5, 0.5 M NaCl. The column was eluted with 35 ml of 10% methyl α, D-mannopyranoside in 50 mM KH2PO4, pH 6.5, 0.5 M NaCl at 0.5 ml/min. Fraction containing most enzymatic activities were pooled and concentrated with an Amicon stirred cell using a YM30 membrane. […]

[2] = target: T2, human dopamine-β-hydroxylase (Homo sapiens, UniProt P09172); experiment: Human DBH activity, conversion of tyramine to octopamine (HPLC); assay type: biochemical; conditions: for IC50: 0.1 mM tyramine, 4 mM ascorbate, pH 5.2
T2 construct: Human secretory DBH was purified from the culture medium of the neuroblastoma cell line SK-N-SH; endogenous in cells; host or cells: SK-N-SH neuroblastoma cells; secreted enzyme purified in house from the culture medium on lentil lectin-sepharose
T2 sequence (P09172 40-617 limits assumed): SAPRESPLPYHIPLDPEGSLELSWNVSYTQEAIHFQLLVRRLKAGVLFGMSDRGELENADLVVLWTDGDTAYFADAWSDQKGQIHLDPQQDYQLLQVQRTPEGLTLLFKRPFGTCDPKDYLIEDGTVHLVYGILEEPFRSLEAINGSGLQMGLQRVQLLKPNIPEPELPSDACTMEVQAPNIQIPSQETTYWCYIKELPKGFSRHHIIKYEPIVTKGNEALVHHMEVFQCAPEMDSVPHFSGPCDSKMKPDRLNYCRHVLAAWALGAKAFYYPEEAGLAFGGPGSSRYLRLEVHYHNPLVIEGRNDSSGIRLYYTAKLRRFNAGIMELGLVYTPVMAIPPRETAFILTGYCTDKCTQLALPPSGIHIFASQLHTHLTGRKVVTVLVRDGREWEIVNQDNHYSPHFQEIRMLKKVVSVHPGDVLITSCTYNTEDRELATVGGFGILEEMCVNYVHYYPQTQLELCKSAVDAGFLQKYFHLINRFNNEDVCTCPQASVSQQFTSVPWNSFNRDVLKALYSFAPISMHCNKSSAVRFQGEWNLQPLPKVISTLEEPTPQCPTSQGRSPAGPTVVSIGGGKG
Method: as §1, §2
as §3, with “membrane. Methyl α, D-mannopyranoside was removed by buffer exchange with in 50 mM KH2PO4, pH 6.5, 0.1 M NaCl. The concentrated enzyme solution was aliquoted and stored at −25° C. An HPLC assay was used to measure DBH activity using tyramine and ascorbate as substrates.” for “membrane.”

[3] = bovine and human DBH taken together

## Cl.NCc1c[nH]c(=S)n1[C@@H]1CCc2c(F)cc(F)cc2C1 [R-enantiomer, (R)-5-Aminomethyl-1-(5,7-difluoro-1,2,3,4-tetrahydronaphth-2-yl)-2,3-dihydro-2-thioxo-1H-imidazole hydrochloride]
[1]
  IC50: 25.1 ± 0.6 nM
[2]
  IC50: 18.3 nM and 18 nM

## Fc1cc(F)cc(Cn2cc[nH]c2=S)c1 [SKF 102698, reference compound]
[1]
  IC50: 67 ± 4.2 nM
[2]
  IC50: 85 ± 3.7 nM

## Cl.NCc1c[nH]c(=S)n1[C@H]1CCc2c(F)cc(F)cc2C1 [nepicastat, (S)-5-Aminomethyl-1-(5,7-difluoro-1,2,3,4-tetrahydronaphth-2-yl)-2,3-dihydro-2-thioxo-1H-imidazole hydrochloride]
[1]
  potency relative to SKF 102698: 8 fold
  potency relative to the R enantiomer: 3 fold
  IC50: 8.5 ± 0.8 nM
[2]
  potency relative to SKF 102698: 9 fold
  potency relative to the R enantiomer: 2 fold
  IC50: 9 nM
[2]; [3]
  potency relative to SKF 102698: 8-9 fold
  potency relative to the R enantiomer: 2-3 fold
[2]; vs the other enzymes studied
  selectivity for dopamine-β-hydroxylase: > 1000 fold
